Source: patent publication US20070219186A1, “Pyrazolo[1,5-A]pyrimidine derivatives and methods of use thereof” (priority 2006, published 2007)
Where two headings read alike, the source gives them in different places.

Target: T1, human B-Raf (Homo sapiens, UniProt P15056)
T1 construct: Flag; GST; made in house; host or cells: Sf9 insect cells (B-Raf); E. coli (MEK1-GST)
Test: B-Raf Kinase to MEK1 ELISA
Format: biochemical
Settings: for IC50: median, cpd concentrations from 10 μM to 30 nM in half log dilutions, read-out: Median IC50; for inhibition at 10 µM: read-out: % Inhib./10 uM
In short: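 Flag/GST-tagged human B-Raf (Sf9, ~20 ng/point) phosphorylates non-active GST-MEK1 (50 nM final) with ATP and MgCl2 in MOPS pH 7.2 buffer, 60 min at RT. Product is captured on anti-GST plates; MEK1 pSer217/221 is read by phospho-antibody plus europium conjugate (DELFIA).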

T1 sequence (P15056 whole entry): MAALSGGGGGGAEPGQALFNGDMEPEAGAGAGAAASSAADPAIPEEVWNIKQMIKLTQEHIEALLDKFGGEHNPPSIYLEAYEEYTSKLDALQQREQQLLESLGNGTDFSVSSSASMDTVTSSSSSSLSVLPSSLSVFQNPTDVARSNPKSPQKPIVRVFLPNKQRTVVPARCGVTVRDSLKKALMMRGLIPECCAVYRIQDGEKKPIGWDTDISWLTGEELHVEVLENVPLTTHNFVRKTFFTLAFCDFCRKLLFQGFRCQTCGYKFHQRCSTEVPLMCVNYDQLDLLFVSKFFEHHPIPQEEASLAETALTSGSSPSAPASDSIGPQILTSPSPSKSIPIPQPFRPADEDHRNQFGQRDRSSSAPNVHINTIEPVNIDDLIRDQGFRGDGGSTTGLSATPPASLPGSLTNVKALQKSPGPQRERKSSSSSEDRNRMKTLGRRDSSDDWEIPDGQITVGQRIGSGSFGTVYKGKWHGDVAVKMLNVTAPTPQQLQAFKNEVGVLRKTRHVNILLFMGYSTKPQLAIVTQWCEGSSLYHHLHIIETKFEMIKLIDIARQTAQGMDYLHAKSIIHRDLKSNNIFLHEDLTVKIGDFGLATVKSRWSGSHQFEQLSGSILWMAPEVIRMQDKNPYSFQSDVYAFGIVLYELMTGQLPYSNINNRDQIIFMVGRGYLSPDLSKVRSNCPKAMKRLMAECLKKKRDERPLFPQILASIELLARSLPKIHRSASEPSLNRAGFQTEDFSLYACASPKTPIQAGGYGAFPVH

| SMILES | IC50 [µM] | inhibition at 10 µM [%] | inhibition at 10 µM (single point assay, 10 uM) [%] |
| --- | --- | --- | --- |
| CN(C)C1CCN(c2cc3nccc(-c4cccc(NC(=O)c5cccc(C(F)(F)F)c5)c4)n3n2)C1 (stereo not shown) [Example 209, N-(3-{2-[3-(dimethylamino)pyrrolidin-1-yl]pyrazolo[1,5-a]pyrimidin-7-yl}phenyl)-3-(trifluoromethyl)benzamide] | > 10 | 24 | – |
| COC[C@H]1CCCN1c1cc2nccc(-c3cccc(NC(=O)c4cccc(C(F)(F)F)c4)c3)n2n1 [Example 210, N-(3-{2-[(2R)-2-(methoxymethyl)pyrrolidin-1-yl]pyrazolo[1,5-a]pyrimidin-7-yl}phenyl)-3-(trifluoromethyl)benzamide] | 2.5 | 52 | – |
| O=C(Nc1cccc(-c2ccnc3cc(N4CCC[C@H]4CN4CCCC4)nn23)c1)c1cccc(C(F)(F)F)c1 [Example 211, N-(3-{2-[(2S)-2-(pyrrolidin-1-ylmethyl)pyrrolidin-1-yl]pyrazolo[1,5-a]pyrimidin-7-yl}phenyl)-3-(trifluoromethyl)benzamide] | > 10 | 47 | – |
| CC(C)(C)OC(=O)NC1CCN(c2cc3nccc(-c4cccc(NC(=O)c5cccc(C(F)(F)F)c5)c4)n3n2)C1 (stereo not shown) [Example 212, tert-butyl {1-[7-(3-{[3-(trifluoromethyl)benzoyl]amino}phenyl)pyrazolo[1,5-a]pyrimidin-2-yl]pyrrolidin-3-yl}carbamate] | > 10 | 22 | – |
| NC1CCN(c2cc3nccc(-c4cccc(NC(=O)c5cccc(C(F)(F)F)c5)c4)n3n2)C1 (stereo not shown) [Example 213, N-{3-[2-(3-aminopyrrolidin-1-yl)pyrazolo[1,5-a]pyrimidin-7-yl]phenyl}-3-(trifluoromethyl)benzamide] | > 10 | 40 | – |
| CCOC(=O)c1cnn2c(-c3cccc(NC(=O)c4cnccn4)c3)ccnc12 [Example 214, ethyl7-{3-[(pyrazin-2-ylcarbonyl)amino]phenyl}pyrazolo[1,5-a]pyrimidine-3-carboxylate] | > 10 | 8 | – |
| CCOC(=O)c1cnn2c(-c3cccc(NC(=O)c4cccn4C)c3)ccnc12 [Example 215, ethyl7-(3-{[(1-methyl-1H-pyrrol-2-yl)carbonyl]amino}phenyl)pyrazolo[1,5-a]pyrimidine-3-carboxylate] | > 10 | 0 | – |
| CCOC(=O)c1cnn2c(-c3cccc(NC(=O)c4cnc(C)cn4)c3)ccnc12 [Example 216, Ethyl7-(3-{[(5-methylpyrazin-2-yl)carbonyl]amino}phenyl)pyrazolo[1,5-a]pyrimidine-3-carboxylate] | > 10 | 3 | – |
| CCOC(=O)c1cnn2c(-c3cccc(NC(=O)c4cc(Cl)ccn4)c3)ccnc12 [Example 217, ethyl7-(3-{[(4-chloropyridin-2-yl)carbonyl]amino}phenyl)pyrazolo[1,5-a]pyrimidine-3-carboxylate] | > 10 | 34 | – |
| CCOC(=O)c1cnn2c(-c3cccc(NC(=O)c4nccc5ccccc45)c3)ccnc12 [Example 218, ethyl7-{3-[(isoquinolin-1-ylcarbonyl)amino]phenyl}pyrazolo[1,5-a]pyrimidine-3-carboxylate] | 4.49 | 73 | – |
| CCOC(=O)c1cnn2c(-c3cccc(NC(=O)c4cc5ccccc5n4C)c3)ccnc12 [Example 219, ethyl 7-(3-{[(1-methyl-1H-indol-2-yl)carbonyl]amino}phenyl)pyrazolo[1,5-a]pyrimidine-3-carboxylate] | > 10 | 12 | – |
| CCOC(=O)c1cnn2c(-c3cccc(NC(=O)c4nn(-c5ccccc5)nc4C)c3)ccnc12 [Example 220, ethyl7-(3-{[(5-methyl-2-phenyl-2H-1,2,3-triazol-4-yl)carbonyl]amino}phenyl)pyrazolo[1,5-a]pyrimidine-3-carboxylate] | > 10 | 30 | – |
| CCOC(=O)c1cnn2c(-c3cccc(NC(=O)c4ccc(C)s4)c3)ccnc12 [Example 221, ethyl7-(3-{[(5-methyl-2-thienyl)carbonyl]amino}phenyl)pyrazolo[1,5-a]pyrimidine-3-carboxylate] | 9.7 | 65 | – |
| CCOC(=O)c1cnn2c(-c3cccc(NC(=O)c4ccc(Cl)s4)c3)ccnc12 [Example 222, ethyl 7-(3-{[(5-chloro-2-thienyl)carbonyl]amino}phenyl)pyrazolo[1,5-a]pyrimidine-3-carboxylate] | > 10 | 43 | – |
| CCOC(=O)c1cnn2c(-c3cccc(NC(=O)c4ccc(Br)s4)c3)ccnc12 [Example 223, ethyl7-(3-{[(5-bromo-2-thienyl)carbonyl]amino}phenyl)pyrazolo[1,5-a]pyrimidine-3-carboxylate] | > 10 | 47 | – |
| CCOC(=O)c1cnn2c(-c3cccc(NC(=O)c4ccc(-c5cc(C(F)(F)F)nn5C)s4)c3)ccnc12 [Example 224, ethyl7-{3-[({5-[1-methyl-3-(trifluoromethyl)-1H-pyrazol-5-yl]-2-thienyl}carbonyl)amino]phenyl}pyrazolo[1,5-a]pyrimidine-3-carboxylate] | > 10 | 39 | – |
| CCOC(=O)c1cnn2c(-c3cccc(NC(=O)CC(C)(C)C)c3)ccnc12 [Example 225, ethyl7-{3-[(3,3-dimethylbutanoyl)amino]phenyl}pyrazolo[1,5-a]pyrimidine-3-carboxylate] | > 10 | 7 | – |
| CCOC(=O)c1cnn2c(-c3cccc(NC(=O)CC(C)CC(C)(C)C)c3)ccnc12 (stereo not shown) [Example 226, ethyl7-{3-[(3,5,5-trimethylhexanoyl)amino]phenyl}pyrazolo[1,5-a]pyrimidine-3-carboxylate] | > 10 | 43 | – |
| CCOC(=O)c1cnn2c(-c3cccc(NC(=O)c4cc(C(C)(C)C)cc(C(C)(C)C)c4)c3)ccnc12 [Example 227, ethyl7-{3-[(3,5-di-tert-butylbenzoyl)amino]phenyl}pyrazolo[1,5-a]pyrimidine-3-carboxylate] | 1.6 | 54 | – |
| CCOC(=O)c1cnn2c(-c3cccc(NC(=O)c4cc(Cl)ccc4Br)c3)ccnc12 [Example 228, ethyl7-{3-[(2-bromo-5-chlorobenzoyl)amino]phenyl}pyrazolo[1,5-a]pyrimidine-3-carboxylate] | > 10 | 7 | – |
| COCC(=O)Nc1ccc(-c2cnn3c(-c4cccc(NC(=O)c5cccc(C(F)(F)F)c5)c4)ccnc23)cc1 [Example 229, N-[3-(3-{4-[(methoxyacetyl)amino]phenyl}pyrazolo[1,5-a]pyrimidin-7-yl)phenyl]-3-(trifluoromethyl)benzamide] | 0.118 | 83 | – |
| CN(C)CC(=O)Nc1ccc(-c2cnn3c(-c4cccc(NC(=O)c5cccc(C(F)(F)F)c5)c4)ccnc23)cc1 [Example 230, N-[3-(3-{4-[(N,N-dimethylglycyl)amino]phenyl}pyrazolo[1,5-a]pyrimidin-7-yl)phenyl]-3-(trifluoromethyl)benzamide] | 0.049 | – | 93 |
| COCCC(=O)Nc1ccc(-c2cnn3c(-c4cccc(NC(=O)c5cccc(C(F)(F)F)c5)c4)ccnc23)cc1 [Example 231, N-[3-(3-{4-[(3-methoxypropanoyl)amino]phenyl}pyrazolo[1,5-a]pyrimidin-7-yl)phenyl]-3-(trifluoromethyl)benzamide] | 0.246 | 80 | – |
